Source: article PMC3501516, “Anti-Diabetic Efficacy and Impact on Amino Acid Metabolism of GRA1, a Novel Small-Molecule Glucagon Receptor Antagonist” (PLoS ONE, 2012)
Marks after values point to notes of the source that are not given here.

Experiments:
[1] = design: method as in PMID 16731832; settings: cited from earlier work
[2] = system: hGCGR HFD/STZ mice; assay: Antihyperglycemic efficacy in hGCGR HFD/STZ mice (acute, chronic, combination with des-fluoro-sitagliptin); format: in vivo, hGCGR mouse; settings: GRA1 10 mg/kg, Des-F-sita 200 mg/kg
Text: The present study made use of a line of hGCGR-expressing mouse (“hGCGR mouse”) generated previously by substituting the hGCGR gene for the mouse GCGR gene. These mice were crossed with C57BL/6J.ob/+ mice (Jackson Laboratories, Bar Harbor, ME) to obtain an hGCGR.ob/+ mouse line. The hGCGR.ob/+ mice were then intercrossed to obtain hGCGR.ob/ob, hGCGR.ob/+, and hGCGR.+/+ mice (with the hGCGR.ob/+ and hGCGR.+/+ mice serving as littermate controls). […] obese (DIO) hGCGR mice were generated by maintaining hGCGR mice on a high-fat diet (HFD) in which 45–60% of calories were in fat (Product S3282, Bio-Serv, Frenchtown, NJ). High-fat-diet-streptozotocin-treated (HFD/STZ) diabetic mice were generated in-house as previously described.
Acute glucose lowering was studied in non-fasted hGCGR.ob/ob mice and HFD/STZ mice administered single doses p.o. of 1, 3 and 10 mg/kg GRA1 in 10 mL/kg 0.5% aqueous methylcellulose. Animals were fasted during the interval between dosing and the final blood glucose measurement. Glucose was measured in blood from tail bleeds using a OneTouch glucometer. In the experiments with hGCGR HFD/STZ mice, treatment groups were matched with respect to body weight and blood glucose levels.
Animals were dosed chronically with GRA1 and the DPP-4 inhibitor des-fluoro-sitagliptin by administering these agents as food admixtures. The admixtures were prepared in-house and by Research Diets (New Brunswick, NJ), with drug concentrations adjusted weekly on the basis of average food consumption and animal weight to provide targeted daily doses. In the GRA1 experiments, the targeted doses were 3, 6, 10, and 30 mg/kg•day. In des-fluoro-sitagliptin experiments, the targeted dose was 200 mg/kg•day, a relatively high amount necessary because this compound has a half-life in rodents of 1–2 h.
Plasma glucagon and active GLP-1 were measured using commercial ELISA kits (Linco Research Immunoassay, St. Charles, MO). […] Plasma insulin was determined by ELISA with a commercial kit (ALPCO Diagnostics, Windham, NH). Plasma concentrations of glycated hemoglobin A1c (HbA1c) were measured using a Micromat II test kit from Bio-Rad Laboratories (Hercules, CA). Total cholesterol, low-density lipoprotein cholesterol (LDL-c) and non-LDL-c, and aspartate aminotransferase were measured using a Roche P Modular Clinical Chemistry analyzer (Indianapolis, IN).
Figure 5 GRA1 lowers glucose in hGCGR HFD/STZ mice and further enhances the efficacy of a DPP-4 inhibitor. (A) Mean (±SEM) blood glucose hGCGR HFD/STZ mice treated with a single dose of 1, 3, or 10 mg/kg GRA1. (B) Non-fasted blood glucose concentrations in hGCGR HFD/STZ mice treated for 6 weeks with 10 mg/kg·day GRA1, 200 mg/kg·day des-fluoro-sitagliptin (des-F-sita), or the two agents in combination. (Additional data from this study are in Table 4.) *p<0.05, **p<0.01, and ***p<0.001 versus HFD/STZ controls; ^#non-significant (p>0.05) versus non-STZ controls; n = 8–15 animals per group.

[3] = system: humans; design: method as in earlier work; settings: clinical studies in humans, MK-0893 combined with the DPP-4 inhibitor sitagliptin; cited from earlier work

N[C@@H](CC(=O)N1CCn2c(nnc2C(F)(F)F)C1)Cc1cc(F)ccc1F [Des-F-sita, 7-[(3R)-3-amino-1-oxo-4-(2,5-difluorophenyl)butyl]-5,6,7,8-tetrahydro-3-(trifluoromethyl)-1,2,4-triazolo[4,3-α]pyrazine, reference compound]
Half-life in rodents [1]: 1 to 2 h | HbA1c ([2]; 5 weeks of treatment, control diet 6.1±0.4): 5.0±0.4% | 6-h fasting blood glucose ([2]; 5 weeks of treatment, control diet 323±33): 283 ± 34 mg/dL | Liver Triglyceride ([2]; 6 weeks, necropsy tissue, control diet 143±10): 94±15* µg/mg | Free fatty acid ([2]; 6 weeks, terminal plasma, control diet 1.4±0.2): 1.1 ± 0.1 mM | Active GLP-1 ([2]; 6 weeks, terminal plasma, control diet 2.5±0.1): 2.9 ± 0.2 pM | Inactive GLP-1 ([2]; 6 weeks, terminal plasma, control diet 8.1±1.1): 3.2±0.2*** pM | Plasma glucagon ([2]; 6 weeks, terminal plasma, control diet 133±21): 87 ± 4 pg/mL | Triglyceride ([2]; 6 weeks, terminal plasma, control diet 184±26): 161 ± 15 mg/dL

COc1ccc2cc(-c3cc(-c4cc(Cl)cc(Cl)c4)nn3[C@@H](C)c3ccc(C(=O)NCCC(=O)O)cc3)ccc2c1 [MK-0893, N-[(4-{(1S)-1-[3-(3,5-Dichlorophenyl)-5-(6-methoxynaphthalen-2-yl)-1H-pyrazol-1-yl]ethyl}phenyl)carbonyl]-beta-alanine]
Glucose-lowering efficacy of combination with sitagliptin [3]: did not result in significant additional glucose-lowering efficacy
